Results: patent publication US20060194260A1, “Screening assays for cannabinoid-ligand-type modulators of gpr55” (priority 2003, published 2006)

What was measured:
GPR55A [1] = target: T1, GPR55A (Homo sapiens, UniProt Q9Y2T6); assay: GTPγS binding assay on membranes of GPR55A-transfected HEK293s cells; format: biochemical; conditions: for EC50: NA = not active; for activation of GPR55A (GTPγS): concentration response
T1 construct: expressed in transfected cells; host or cells: HEK293s (transient, pIRESneo2 vector), membranes
Description: Membranes with or without 20 μM ligand were assayed for their stimulatory or inhibitory activity on GTPγS binding. As a negative control, cell membranes were prepared from empty vector-transfected cells, and as a positive control, cell membranes were prepared from CB1 transfected cells.
Receptor activity was determined using a GTPγS binding assay as follows: 10 μg of membranes diluted in 200 μl of 100 mM NaCl, 5 mM MgCl2, 1 mM EDTA, 50 mM HEPES (pH 7.4), 1 mM DTT, 0.1% BSA and 100 μM GDP. To this was added the required concentration of test compound and […] ^35S-GTPγS in the presence or absence of an EC80 concentration of agonist (HU210). […] Samples were then transferred on to GF/B filters using a cell harvester and washed with wash buffer (50 mM Tris (pH 7.4), 5 mM MgCl2, 50 mM NaCl). Filters were then covered with scintilant and counted for the amount of ^35S-GTPγS retained by the filter. To determine the level of non-specific binding control reactions were performed in the presence of 10 μM GTPγS.
Functional activity of ligands either in the presence or absence of agonists was determined as follows: Non-specific binding was subtracted from all values determined. The effect of compounds at various concentrations was plotted according to the equation y=A+((B−A)/1+((C/x)?ˆD))) and EC50 or IC50 estimated. Results
To further define the agonist activities of cannabinoid ligands EC50 determinations were made. […] Refer to FIGS. 5A-5D for the results. […] Table 1. Activity of ligands at GPR55A (Antagonist data were generated in the presence of an EC80 concentration of HU210.)

GPR55A [2] = target: T1, GPR55A; assay: Radioligand binding, membranes of GPR55A-transfected HEK293S cells; conditions: for specific binding of radioligand: 1.6 nM radioligand
Description: (§1) To test whether GPR55 and/or GPR55Δ encoded a receptor that had the potential to perform as a cannabinoid receptor we transiently transfected cDNAs encoding FLAG-tagged forms of the receptors into HEK293S cells using lipofectamine. The cells were harvested 48 hours later and membranes prepared.
(§2) Membrane preparations were prepared by re-suspending receptor expressing cells in ice cold TE buffer (10 mM Tris-HCL 0.1 mM EDTA pH7.5) and leaving on ice for 5 minutes before pelleting the insoluble material by centrifugation at 1000 g. This process was repeated twice before re-suspending the pellet in an appropriate volume of TE and storing at −80° C.
(§3) Test compounds were added followed by 1.6 nM radioligand (3H—SR-141716A, ^3H-CP55940 or ^3H-WIN-55, 212-2) to an assay mixture containing membranes (10 μg protein) in 5.0 mM Tris, 5.0 mM MgCl2×6H2O (pH 7.4) supplemented with 0.05% BSA. The reaction was allowed to proceed at 30° C. for 90 min and then terminated by rapid filtration using GF/B filters (pre-soaked in 0.05% PEI) and washed with 50 mM Tris (pH 7.4), MgCl2×6H2O. Filters were then covered with scintillant and counted for the amount of radioligand retained. Non-specific binding was determined in the presence of 200 nM SR-141716A, CP55940 or WIN-55, 212-2.

[3] = Radioligand binding, membranes of vector-transfected cells (negative control); conditions: vector-transfected cell membranes
Description: as §3

GPR55 = target: T2, GPR55 (Homo sapiens, UniProt Q9Y2T6); assay: Radioligand binding, membranes of GPR55-transfected HEK293S cells; conditions: for specific binding of radioligand: 1.6 nM radioligand
T2 construct: FLAG; expressed in transfected cells; host or cells: HEK293S (transient), membranes
Description: as §1, §2, §3

[4] = GTPγS binding, GPR55A membranes

T1 sequence (Q9Y2T6 whole entry): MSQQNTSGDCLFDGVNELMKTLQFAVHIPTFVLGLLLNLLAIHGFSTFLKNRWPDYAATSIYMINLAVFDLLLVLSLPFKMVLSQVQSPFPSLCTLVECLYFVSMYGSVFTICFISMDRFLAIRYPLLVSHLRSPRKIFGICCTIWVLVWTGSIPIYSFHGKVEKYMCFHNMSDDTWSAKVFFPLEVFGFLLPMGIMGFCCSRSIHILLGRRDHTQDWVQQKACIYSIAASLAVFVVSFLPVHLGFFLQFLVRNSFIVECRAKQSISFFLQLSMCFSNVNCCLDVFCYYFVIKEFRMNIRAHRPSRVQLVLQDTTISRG
T2 sequence (Q9Y2T6 whole entry L132S/R133G/S134P/R136G/K137R/I138S/F139L/I141S/C142A): as the sequence (Q9Y2T6 whole entry) above, with L132S, R133G, S134P, R136G, K137R, I138S, F139L, I141S, C142A counted along it

| SMILES | EC50 (GPR55A [1]; [4]) [nM] | activation of GPR55A (GTPγS) (GPR55A [1]) | also measured |
| --- | --- | --- | --- |
| CCCCC/C=C\C/C=C\C/C=C\C/C=C\CCCC(=O)OC(CO)CO [2-AG, 2-aracodonylglycerol] | 3.5 ± 2.4 | concentration-dependent activation | – |
| C=C(C)[C@@H]1CCC(C)=C[C@H]1c1c(O)cc(O)cc1CCCCC [Abnormal cannabidiol] | 2780 ± 98 | – | – |
| CCCCC/C=C\C/C=C\C/C=C\C/C=C\CCCC(=O)NCCO [Anandamide] | 18.4 ± 4.1 | concentration-dependent activation | – |
| CCCCCCC(C)(C)c1ccc([C@@H]2C[C@H](O)CC[C@H]2CCCO)c(O)c1 [CP55940] | 7.1 ± 1.3 | – | concentration dependent activity after pertussis toxin or cholera toxin treatment (GPR55A [1]; GPR55a in HEK293s membranes, treated with either toxin vs untreated): remains unaltered |
| C=C(C)[C@@H]1CCC(C)=C[C@H]1c1c(O)cc(CCCCC)cc1O [Cannabidiol] | – | – | IC50 (GPR55A [1]; GTPγS binding, GPR55A membranes, antagonist data in the presence of an EC80 concentration of HU210, read-out: IC50 measurement): 354 ± 63 nM |
| CCCCCCC(C)(C)c1cc(O)c2c(c1)OC(C)(C)[C@@H]1CC=C(CO)C[C@@H]21 [Hu210] | 33 ± 12 | – | – |
| CCCn1c(C)c(C(=O)c2cccc3ccccc23)c2ccccc21 [JWH-015] | 4.75 ± 0.25 | – | – |
| CCCCC/C=C\C/C=C\C/C=C\C/C=C\CCCCOC(CO)CO [Noladin Ether] | 11.5 ± 0.5 | concentration-dependent activation | – |
| CCCCCCCC/C=C\CCCCCCCC(=O)NCCO [Oleylethanolamide] | 424 ± 203 | – | – |
| CCCCCCCCCCCCCCCC(=O)NCCO [Palmitoylethanolamide] | 3.2 ± 1.3 | concentration-dependent activation | – |
| Cc1c(C(=O)NN2CCCCC2)nn(-c2ccc(Cl)cc2Cl)c1-c1ccc(Cl)cc1 [SR141716] | – | – | displacement of [^3H]-SR141716 (competition-binding curve) (GPR55A [2]): nanomolar affinity; specific binding, [^3H]-SR141716 competition [3]: no specific binding; displacement of [^3H]-SR141716 (competition-binding curve) (GPR55): nanomolar affinity |
| CCCCC/C=C\C/C=C\C/C=C\C/C=C\CCCC(=O)OCCN [Virodhamine] | 10.4 ± 1.4 | – | – |
| CCCCCCC(C)(C)c1ccc([C@@H]2C[C@H](O)CC[C@H]2CCCO)c(O)c1 [[^3H]-CP55940] | – | – | specific binding of radioligand (GPR55A [2]): significant binding; specific binding of radioligand (GPR55): significant binding |
| Cc1c(C(=O)NN2CCCCC2)nn(-c2ccc(Cl)cc2Cl)c1-c1ccc(Cl)cc1 [[^3H]-SR141716] | – | – | specific binding of radioligand (GPR55A [2]): significant binding; specific binding of radioligand (GPR55): significant binding |
| Cc1c(C(=O)c2cccc3ccccc23)c2cccc3c2n1C(CN1CCOCC1)CO3 (stereo not drawn) [[^3H]-WIN55-212] | – | – | specific binding of radioligand (GPR55A [2]): little or no binding; specific binding of radioligand (GPR55): little or no binding |
| CCCCCc1cc(O)c2c(c1)OC(C)(C)[C@@H]1CCC(C)=C[C@@H]21 [Δ9-THC, Δ9-tetrahydrocannbinol] | 8.9 ± 1.1 | concentration-dependent activation | – |
